≈ marks a conversion by molar mass, not a printed value. Read-outs that look alike come from different tables or passages of the source.
Tests used:
D. pneumoniae A9585 = experiment: M.I.C. by tube dilution; format: cell-based; details: Streptococcus pneumoniae, D. pneumoniae + 5% serum, 50% Nutrient Broth - 45% Antibiotic Assay Broth, overnight 37° C.
Str. pyogenes A9604 = experiment: M.I.C. by tube dilution; format: cell-based; details: Streptococcus pyogenes, Str. pyogenes + 5% serum, 50% Nutrient Broth - 45% Antibiotic Assay Broth, overnight 37° C.
S. aureus Smith A9537 = experiment: M.I.C. by tube dilution; format: cell-based; details: Staphylococcus aureus, overnight 37° C., read-out: M.I.C.
[1] = system: S. aureus BX 1633-2 A9606; experiment: M.I.C. by tube dilution; format: cell-based; details: Staphylococcus aureus, overnight 37° C., read-out: M.I.C.
[2] = system: S. aureus methicillin-resistant A15097; experiment: M.I.C. by tube dilution; format: cell-based; details: Staphylococcus aureus, at 10^-^3 dilution, overnight 37° C.
S. aureus A9748 = experiment: M.I.C. by tube dilution; format: cell-based; details: Staphylococcus aureus, overnight 37° C., read-out: M.I.C.
Sal. enteritidis A9531 = experiment: M.I.C. by tube dilution; format: cell-based; details: Salmonella enterica, ENTERITIDIS; at 10^-^4 dilution; overnight 37° C.; read-out: M.I.C.
E. coli Juhl A15119 = experiment: M.I.C. by tube dilution; format: cell-based; details: Escherichia coli, JUHLA15119
E. coli A9675 = experiment: M.I.C. by tube dilution; format: cell-based; details: Escherichia coli, A9675; at 10^-^4 dilution; overnight 37° C.; read-out: M.I.C.
K. pneumoniae A9977 = experiment: M.I.C. by tube dilution; format: cell-based; details: Klebsiella pneumoniae, A9977; at 10^-^4 dilution; overnight 37° C.; read-out: M.I.C.
K. pneumoniae A15130 = experiment: M.I.C. by tube dilution; format: cell-based; details: Klebsiella pneumoniae, A15130, at 10^-^4 dilution, overnight 37° C.
Pr. mirabilis A9900 = experiment: M.I.C. by tube dilution; format: cell-based; details: Proteus mirabilis, A9900; at 10^-^4 dilution; overnight 37° C.; read-out: M.I.C.
Pr. morganii A15153 = experiment: M.I.C. by tube dilution; format: cell-based; details: Morganella morganii
Ps. aeruginosa A9843A = experiment: M.I.C. by tube dilution; format: cell-based; details: Pseudomonas aeruginosa
Ser. marcescens A20019 = experiment: M.I.C. by tube dilution; format: cell-based; details: Serratia marcescens
[3] = Blood levels in the mouse after oral administration; format: in vivo; details: for concentration at 0.5 h / concentration at 1 h / concentration at 2 h / concentration at 3.5 h: blood, 100 mg/kg, read-out: Blood Level; for concentration at 0.5 h / concentration at 1 h / concentration at 2 h / concentration at 3.5 h / Blood Level: mouse, oral, 100 mgm./kg.; for concentration at 0.5 h / Blood Level: 0.5 hrs. after administration; for concentration at 1 h: 1 hr. after administration; for concentration at 2 h: 2 hrs. after administration; for concentration at 3.5 h: 3.5 hrs. after administration; for oral absorption: in words
Experimental: Blood levels in the mouse after oral administration were
determined with the following results:

[4] = system: certain important pathogenic organisms; experiment: In vitro activity in the primary screening tests (overall); format: cell-based; details: in words
Source text: This combination of good oral absorption and high antibacterial activity in a cephalosporin while highly desirable is quite uncommon in compounds reported to date. […] To illustrate the unpredictability of oral absorption and antibacterial activity in a closely related series of cephalosporin compounds, Tables 1-8 below compare in vitro activities and oral absorption as tested in the mouse of the compounds of the formula ##SPC12##

[5] = SMITHA9537, + 50% serum, at 10^-^4 dilution
[6] = BX16332A9606, at 10^-^2 dilution
[7] = BX16332A9606, at 10^-^3 dilution
[8] = at 10^-^4 dilution, overnight 37° C., read-out: M.I.C.

| SMILES | MIC (D. pneumoniae A9585) [µg/mL] | MIC (Str. pyogenes A9604) [µg/mL] | MIC (S. aureus Smith A9537; [5]) [µg/mL] | MIC (S. aureus Smith A9537; SMITHA9537, at 10^-^4 dilution) [µg/mL] | MIC [1, 6] [µg/mL] | MIC [1, 7] [µg/mL] | MIC [2] [µg/mL] | MIC (S. aureus A9748; A9748, at 10^-^2 dilution) [µg/mL] | MIC (S. aureus A9748; A9748, at 10^-^3 dilution) [µg/mL] | MIC (Sal. enteritidis A9531) [µg/mL] | MIC (E. coli A9675) [µg/mL] | MIC (K. pneumoniae A9977) [µg/mL] | MIC (K. pneumoniae A15130; read-out: M.I.C.) [µg/mL] | MIC (Pr. mirabilis A9900) [µg/mL] | MIC (Pr. morganii A15153; [8]) [µg/mL] | MIC (Ps. aeruginosa A9843A) [µg/mL] | concentration at 0.5 h [3] [ng/mL] | concentration at 1 h [3] [ng/mL] | concentration at 2 h [3] [ng/mL] | concentration at 3.5 h [3] [ng/mL] | also measured |
| --- | --- | --- | --- | --- | --- | --- | --- | --- | --- | --- | --- | --- | --- | --- | --- | --- | --- | --- | --- | --- | --- |
| N[C@@H](C(=O)NC1C(=O)N2C(C(=O)O)=C(CSC(=O)c3nccs3)CS[C@H]12)c1ccccc1 (stereo partly drawn) [Compound 567, 7-[D-(-)-α-Aminophenylacetamido]-3-(thiazol-2-yl)carbonylthiomethyl-3-cephem-4-carboxylic acid] | 0.04 | 0.04 | 8 | 0.3 (≈ 0.612 µM) | 2 (≈ 4.08 µM) | 0.6 (≈ 1.22 µM) | 4 (≈ 8.15 µM) | 16 (≈ 32.6 µM) | 4 (≈ 8.15 µM) | 0.08 (≈ 0.163 µM) | 4 (≈ 8.15 µM) | 2 (≈ 4.08 µM) | 8 (≈ 16.3 µM) | 2 (≈ 4.08 µM) | 63 (≈ 128 µM) | > 125 | 16000 | 14100 | 3400 | < 400 | MIC (E. coli Juhl A15119): 1 µg/mL (≈ 2.04 µM); MIC (Ser. marcescens A20019): 125 µg/mL (≈ 255 µM); oral absorption [3]: good oral absorption properties; activity relative to cephalexin [4]: excellent activity relative to cephalexin |
| N[C@@H](C(=O)NC1C(=O)N2C(C(=O)O)=C(CSC(=O)c3cscn3)CS[C@H]12)c1ccccc1 (stereo partly drawn) [Compound 591, 7-[D-(-)α-aminophenylacetamido]-3-(thiazol-4-yl)carbonylthiomethyl-3-cephem-4-carboxylic acid] | 0.02 | 0.02 | 8 | 0.3 (≈ 0.612 µM) | 2 (≈ 4.08 µM) | 0.6 (≈ 1.22 µM) | 2 (≈ 4.08 µM) | 16 (≈ 32.6 µM) | 4 (≈ 8.15 µM) | 0.16 (≈ 0.326 µM) | 4 (≈ 8.15 µM) | 1 (≈ 2.04 µM) | 8 (≈ 16.3 µM) | 1 (≈ 2.04 µM) | 32 (≈ 65.2 µM) | > 125 | 6500 | 7900 | 4400 | 3200 | MIC (E. coli Juhl A15119; [8]): 1 µg/mL (≈ 2.04 µM); MIC (Ser. marcescens A20019): 125 µg/mL (≈ 255 µM) |
| Cc1csc(C(=O)SCC2=C(C(=O)O)N3C(=O)C(NC(=O)[C@H](N)c4ccccc4)[C@H]3SC2)n1 (stereo partly drawn) [Compound 556, 7-[D-α-aminophenylacetamido]-3-(4-methylthiazol-2-yl)carbonylthiomethyl-3-cephem-4-carboxylic acid] | 1.3 | 2.5 | 63 | 1.3 (≈ 2.58 µM) | 4 (≈ 7.93 µM) | 1.3 (≈ 2.58 µM) | 4 (≈ 7.93 µM) | 8 (≈ 15.9 µM) | 4 (≈ 7.93 µM) | 1 (≈ 1.98 µM) | 32 (≈ 63.4 µM) | 32 (≈ 63.4 µM) | – | 32 (≈ 63.4 µM) | – | 125 (≈ 248 µM) | 15200 | 16200 | 7800 | < 2100 | MIC (E. coli Juhl A15119; [8]): 32 µg/mL (≈ 63.4 µM); MIC (K. pneumoniae A15130): 125 µg/mL (≈ 248 µM); MIC (Pr. morganii A15153): 125 µg/mL (≈ 248 µM); MIC (Ser. marcescens A20019; [8]): 63 µg/mL (≈ 125 µM); Blood Level [3]: 15200 ng/mL |
| Cc1cnc(C(=O)SCC2=C(C(=O)O)N3C(=O)C(NC(=O)[C@H](N)c4ccccc4)[C@H]3SC2)s1 (stereo partly drawn) [Compound 586, 7-[D-(-)-α-Aminophenylacetamido]-3-(5-methylthiazol-2-yl)carbonylthiomethyl-3-cephem-4-carboxylic acid] | 0.16 | 0.3 | > 63 | 0.3 (≈ 0.595 µM) | 4 (≈ 7.93 µM) | 0.6 (≈ 1.19 µM) | 4 (≈ 7.93 µM) | 63 (≈ 125 µM) | 8 (≈ 15.9 µM) | 0.3 (≈ 0.595 µM) | 4 (≈ 7.93 µM) | 4 (≈ 7.93 µM) | 32 (≈ 63.4 µM) | 16 (≈ 31.7 µM) | 63 (≈ 125 µM) | > 125 | 34800 | 30700 | 13000 | 7000 | MIC (E. coli Juhl A15119): 2 µg/mL (≈ 3.96 µM); MIC (Ser. marcescens A20019): > 125 µg/mL; oral absorption [3]: good oral absorption properties; Blood Level [3]: 34800 ng/mL; activity relative to cephalexin [4]: excellent activity relative to cephalexin |

From patent publication US3985740A, “7-[D-(α-amino-α-phenyl-, 2-thienyl- and 3-thienylacetamido)]-3-(5-methylthiazol-2-yl)carbonylthiomethyl-3-cephem -4-carboxylic acids” (Bristol-Myers Company, priority 1974, dated 1976)
